According to patent US6900224B2, “Antimicrobial quinolones, their compositions and uses” (The Procter & Gamble Company, priority 2002, dated 2005):

Experiments:
[1] = tested on: Streptococcus pneumoniae; conditions: human, lower respiratory tract infection with Streptococcus pneumoniae; 30 mg/mL suspension, approx. 2.0 mL intramuscular twice daily for approx. 14 days; after 4 days
Description: An antimicrobial composition for parenteral administration, according to this invention, is made comprising:
The above ingredients are mixed, forming a suspension. Approximately 2.0 mL of the suspension is systemically administered, via intramuscular injection, to a human subject suffering from a lower respiratory tract infection, with Streptococcus pneumoniae present. This dosage is repeated twice daily, for approximately 14 days.

[2] = reported side effect; cited from earlier work
[3] = tested on: Escherichia coli; experiment: treatment of human subject with urinary tract infection, enteric coated oral tablets; assay type: in vivo; conditions: two enteric coated tablets (350 mg each) orally every 8 hours for 4 days
Description: An enteric coated antimicrobial composition for oral administration, according to this invention, is made comprising the following core tablet:
The components are admixed into a bulk mixture. Compressed tablets are formed, using tabletting methods known in the art. The tablet is then coated with a suspension of methacrylic acid/methacrylic acid ester polymer in isopropanol/acetone. A human subject, having a urinary tract infection with Escherichia coli present, is orally administered two of the tablets, every 8 hours, for 4 days.

## CC[C@@H]1[C@H](N)CN(c2nc3c(cc2F)c(=O)c(C(=O)O)cn3C2CC2)C[C@@H]1C.Cl [Example 12, 7-[3S-amino-4S-ethyl-5R-methyl-piperidinyl]-1-Cyclopropyl-1,4-dihydro-6-fluoro-4-oxo-1,8-naphthyridine-3-carboxylic acid hydrochloride]
[1]
  symptoms of the disease / eradication of the pathogen: symptoms of the disease subside

## COc1c(N2CCNC(C)C2)c(F)cc2c(=O)c(C(=O)O)cn(C3CC3)c12 (racemic) [gatifloxacin, (±)-1-cyclopropyl-6-fluoro-1,4-dihydro-8-methoxy-7-(3-methyl-1-piperazinyl)-4-oxo-3-quinoline carboxylic acid]
[2]
  clastogenicity: exhibit clastogenicity

## 7-[7-amino-8R-methyl-5-azaspiro[2.5]-octanyl]-1-cyclopropyl-1,4-dihydro-6-fluoro-8-methoxy-4-oxo-3-quinolinecarboxylic acid hydrochloride [Example 5]
[3]
  symptoms of the disease / eradication of the pathogen: Symptoms of the disease then subside
